Assay results as given in PubChem BioAssay (NCI).
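Tested at 5 concentrations; 48 h exposure; 96-well plates; endpoints linearly interpolated, else capped at highest concentration. TGI: concentration producing complete growth inhibition.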

Assays:
Test in all cases: NCI anticancer screen, dose series, 48 h
CAKI-1 renal = tested on: CAKI-1 renal
TK-10 renal = tested on: TK-10 renal
OVCAR-4 ovarian = tested on: OVCAR-4 ovarian
SNB-75 CNS = tested on: SNB-75 CNS
U251 CNS = tested on: U251 CNS
MDA-MB-231 breast = tested on: MDA-MB-231 breast
EKVX NSCLC = tested on: EKVX NSCLC
SF-539 CNS = tested on: SF-539 CNS
OVCAR-3 ovarian = tested on: OVCAR-3 ovarian
HOP-92 NSCLC = tested on: HOP-92 NSCLC
PC-3 prostate = tested on: PC-3 prostate
HS 578T breast = tested on: HS 578T breast

Structure (SMILES) | TGI (CAKI-1 renal) [µM] | TGI (TK-10 renal) [µM] | TGI (OVCAR-4 ovarian) [µM] | TGI (SNB-75 CNS) [µM] | TGI (U251 CNS) [µM] | TGI (MDA-MB-231 breast) [µM] | TGI (EKVX NSCLC) [µM] | TGI (SF-539 CNS) [µM] | TGI (OVCAR-3 ovarian) [µM] | TGI (HOP-92 NSCLC) [µM] | TGI (PC-3 prostate) [µM] | TGI (HS 578T breast) [µM]
Cc1cc(S(=O)(=O)Nc2n[nH]c(-c3ccc(Cl)cc3)n2)c(SSc2cc(Cl)c(C)cc2S(=O)(=O)Nc2n[nH]c(-c3ccc(Cl)cc3)n2)cc1Cl | > 100 | > 100 | > 100 | 76.1 | 78.6 | > 100 | 89.6 | > 100 | 85.1 | 76.8 | 84.6 | > 100
O=C1NC2c3c(I)sc(I)c3C(=O)C2O1 (stereo unspecified) | 9.36 | 27.3 | 23 | 25.8 | > 50 | 7.86 | 16.5 | 4.92 | 11.1 | 10.1 | 19 | 35.1
CCOC1OC(COC(=O)C(C)(C)C)C(O)CC1n1cc(C)c(=O)[nH]c1=O (stereo unspecified) | > 100 | > 100 | > 100 | > 100 | > 100 | > 100 | > 100 | > 100 | > 100 | > 100 | > 100 | > 100
